One block for each molecule: values may come before it.
Columns and labels:
[1] = Cytotoxicity against mouse SVR cells assessed as cell growth inhibition by anti-angiogenisis screening assay; format: toxicity, cell-based
[2] = Cytotoxicity against HUVEC cells assessed as cell growth inhibition by anti-angiogenisis screening assay; format: toxicity, cell-based; conditions: human
NCI-H460 [3] = assay: Anticancer activity against human NCI-H460 cells assessed as cell growth inhibition; format: functional
[4] = Cytotoxicity against mouse MS-1 cells assessed as cell growth inhibition by anti-angiogenisis screening assay; format: toxicity, cell-based
A549 [5] = assay: Anticancer activity against human A549 cells assessed as cell growth inhibition; format: functional
RPMI-7951 = assay: Growth inhibition of human RPMI-7951 cells measured after 72 hrs by microplate reader analysis; format: functional, cell-based; conditions: RPMI-7951, time 72 hrs
MDA-MB-231 = assay: Growth inhibition of human MDA-MB-231 cells measured after 72 hrs by microplate reader analysis; format: functional
L1210 [6] = assay: Antiproliferative activity against mouse L1210 cells assessed as cell growth inhibition measured after 72 hrs by MTT assay; format: functional, cell-based; conditions: L1210, 72 h
B16 [7] = assay: Antiproliferative activity against mouse B16 cells assessed as cell growth inhibition measured after 72 hrs by MTT assay; format: functional, cell-based; conditions: B16, 72 h
A549 [8] = assay: Antiproliferative activity against human A549 cells assessed as cell growth inhibition measured after 24 hrs by MTT assay; format: functional, cell-based; conditions: A549, 24 h
NCI-H460 [9] = assay: Antiproliferative activity against human NCI-H460 cells assessed as cell growth inhibition measured after 24 hrs by MTT assay; format: functional, cell-based; conditions: NCI-H460, 24 h
L1210 [10] = assay: Antiproliferative activity against mouse L1210 cells assessed as inhibition of cell growth; format: functional, cell-based
B16 [11] = assay: Antiproliferative activity against mouse B16 cells assessed as cell growth inhibition; format: functional, cell-based
A2780 = assay: Antiproliferative activity against human A2780 cells assessed as cell viability at 10 uM measured after 24 hrs by MTT assay relative to control; format: functional; conditions: read-out: Activity
HCT-116 = assay: Antiproliferative activity against human HCT-116 cells assessed as cell growth inhibition measured after 72 hrs; format: functional, cell-based; conditions: HCT-116, 72 h
G-361 = assay: Antiproliferative activity against human G-361 cells assessed as cell growth inhibition measured after 72 hrs; format: functional, cell-based; conditions: G-361, 72 h
A549 [12] = assay: Antiproliferative activity against human A549 cells assessed as cell growth inhibition measured after 72 hrs; format: functional, cell-based; conditions: A549, 72 h
8505C = assay: Antiproliferative activity against human 8505C cells assessed as cell growth inhibition measured after 72 hrs; format: functional, cell-based
[13] = Antiproliferative activity against human SH-10-TC cells assessed as cell growth inhibition measured after 72 hrs; format: functional, cell-based
PC-3 = assay: Antiproliferative activity against human PC-3 cells assessed as cell growth inhibition measured after 72 hrs; format: functional, cell-based; conditions: PC-3, 72 h
ACHN = assay: Antiproliferative activity against human ACHN cells assessed as cell growth inhibition measured after 72 hrs; format: functional, cell-based
GCIY = assay: Antiproliferative activity against human GCIY cells assessed as cell growth inhibition measured after 72 hrs; format: functional, cell-based
MCF7 = assay: Antiproliferative activity against human MCF7 cells assessed as cell growth inhibition measured after 72 hrs; format: functional, cell-based; conditions: MCF7, 72 h
Huh-7 = assay: Antiproliferative activity against human Huh-7 cells assessed as cell growth inhibition measured after 72 hrs; format: functional, cell-based; conditions: Huh-7, 72 h
[14] = Antiproliferative activity against human OVK18 cells assessed as cell growth inhibition measured after 72 hrs; format: functional, cell-based; conditions: OVK18, 72 h
DLD-1 [15] = assay: Antiproliferative activity against human DLD-1 cells assessed as cell growth inhibition measured after 96 hrs; format: functional, cell-based; conditions: DLD-1, 96 h
[16] = Antiproliferative activity against human PK-1 cells assessed as cell growth inhibition measured after 72 hrs; format: functional, cell-based; conditions: PK-1, 72 h
HuCCT-1 = assay: Antiproliferative activity against human HuCCT-1 cells assessed as cell growth inhibition measured after 72 hrs; format: functional, cell-based; conditions: HuCCT-1, 72 h
A-431 = assay: Antiproliferative activity against human A-431 cells assessed as cell growth inhibition measured after 72 hrs; format: functional, cell-based; conditions: A-431, 72 h
DLD-1 [17] = assay: Antiproliferative activity against human DLD-1 cells assessed as cell growth inhibition measured after 72 hrs; format: functional, cell-based; conditions: DLD-1, 72 h

Compound: O=C(/C=C/c1ccccc1F)/C=C/c1ccccc1F
GI50 [1]: 6.1 µM
GI50 [2]: 6.1 µM
GI50 (NCI-H460 [3]): 11.3 µM
GI50 [4]: 6.1 µM
GI50 (A549 [5]): 17 µM
GI50 (RPMI-7951): 2300 nM
GI50 (MDA-MB-231): 1000 nM

Compound: COc1cc(/C=C2\CNC/C(=C\c3cc(OC)cc(OC)c3OC)C2=O)c(OC)c(OC)c1
IC50 (L1210 [10]): 300 nM
IC50 (B16 [11]): 200 nM

Compound: CC1(C)C=C(CN2C/C(=C\c3ccc(F)cc3)C(=O)/C(=C/c3ccc(F)cc3)C2)C(C)(C)N1O
viability at 10 µM (A2780): 20%

Compound: COc1cc(/C=C/C(=O)CC(=O)/C=C/c2ccc(O)c(OC)c2)ccc1O [CURCUMIN]
IC50 (A549 [8]): 32.5 µM
IC50 (NCI-H460 [9]): 5.3 µM

The next lines start with results.

IC50 (L1210 [6]): 120 nM
IC50 (B16 [7]): 510 nM
Compound: COc1cc(/C=C2\CC(c3ccccc3)C/C(=C\c3cc(OC)c(OC)c(OC)c3)C2=O)cc(OC)c1OC (centres undefined)

IC50 (A549 [8]): 5.3 µM
IC50 (NCI-H460 [9]): 2.3 µM
Compound: CCN1C/C(=C\c2ccc(OC)c(OC)c2OC)C(=O)/C(=C/c2ccc(OC)c(OC)c2OC)C1

IC50 (L1210 [6]): 350 nM
IC50 (B16 [7]): 1600 nM
Compound: O=C1/C(=C/c2ccc([N+](=O)[O-])cc2)CC(c2ccccc2)C/C1=C\c1ccc([N+](=O)[O-])cc1 (centres undefined)

IC50 (HCT-116): > 50 µM
IC50 (A549 [12]): > 50 µM
IC50 (PC-3): > 50 µM
IC50 (ACHN): > 50 µM
IC50 (MCF7): > 50 µM
IC50 (Huh-7): > 50 µM
IC50 (DLD-1 [15]): 3000 nM
IC50 (A-431): > 50 µM
IC50 (DLD-1 [17]): > 50 µM
Compound: O=C1/C(=C/c2ccccc2)CCC/C1=C\c1ccccc1 [2,6-DIBENZYLIDENECYCLOHEXANONE]
IC50 (G-361): > 50 µM
IC50 (8505C): > 50 µM
IC50 [13]: > 50 µM
IC50 (GCIY): > 50 µM
IC50 [14]: > 50 µM
IC50 [16]: > 50 µM
IC50 (HuCCT-1): > 50 µM

Source: ChEMBL document CHEMBL5244235, “Diarylpentanoids with antitumor activity: A critical review of structure-activity relationship studies” (Eur J Med Chem, 2020)
